The test system of test [1] is SH-SY5Y neuroblastoma cells. The test is described as follows: Growth inhibition, log dose-response. The class given is cell-based. Particulars: Homo sapiens. The text has this: FIG. 14 (A-B). Log dose-response curve for compound 8 in MCF-7 (FIG. 14A) and SH-SY5Y neuroblastoma (FIG. 14B) cells.
The next test concerns MCF-7 cancer cells. The test is described as follows: Sulforhodamine B (SRB) growth inhibition assay. The class given is cell-based. As to conditions: Homo sapiens, MCF7, 24 h treatment, mean of triplicate, SD <10%. On the procedure:
(§1) Various compounds were tested to evaluate the dose response curve for effect on MCF-7 cancer cells and MDA-MB-231 cancer cells. MCF-7 and MDA-MB-231 cells were cultured in 10% Minimum Essential Medium Eagle (MEME) supplemented with Earle's Balanced Salt Solution (EBSS), Non-essential Amino acids (NEAA), Sodium pyruvate, Pen/Strep, L-glutamine and Fetal Bovine Serum (FBS) at 37° C. in 5% CO2.
(§2) Sulforhodamine B (SRB) Assay: A stock solution of compounds was prepared at 50 mM in 100% DMSO. For cells preparation, a flask of 75 cm^2 or 25 cm^2 were used for 2.6×10^5 cells or 1.44×10^5 cells respectively with an 80-90% of confluence. Cells were washed with PBS and trypsinized. The concentration of cells was determined using a 1:2 dilutions with Trypan Blue and a hemocytometer. After cell count, the concentration was adjusted to have a 1.9×10^4 cells/well. Approximately […] of cells suspension, compounds, control positive and control negative were added in triplicates to a 96 well plate. Positive controls used were ellipticine, doxorubicin, and/or vincristine, and the negative control was DMSO 0.1%. All compounds at 50, 25, 12.5, 6.3, and 1.6 μM were incubated with cells at 37° C. for 24 hrs. For fixation, cold TCA 50% was used and incubated at 4° C. for 1 hr. Wells were washed and dried prior to tincture with 100 μL of SRB 0.4%. To remove excess of SRB, acetic acid was used. For analysis, TRIS-BASE Solution (pH=10.5) was used and shacked prior to reading using an ELISA reader at 510 nm and the software SoftMax Pro 4.8.
(§3) For each compound, 50% growth inhibition (GI50) was calculated from Sigmoidal dose-response curves (variable-slope) that were generated with data obtained from experiments carried out in triplicates (GI50 values were generated with GraphPad Prism V. 6.02, GraphPad Software, Inc.). The results are presented in FIGS. 4A-4B (MCF-7 cancer cells) and FIGS. 5A-5B (MDA-MB-231 cancer cells).

The next test has as its system MDA-MB-231 cancer cells. The test is described as follows: Sulforhodamine B (SRB) growth inhibition assay. The class given is cell-based, human. As to conditions: Homo sapiens, MDA-MB-231; SRB assay, 24 h treatment, mean of triplicate, SD <10%. As to the method: as §1, §2, §3
On the technique in general: Sulforhodamine B stains cellular protein and so reports cell mass.

Test [2] relates to MDA-MB-231 breast cancer cells. The test is described as follows: Wound healing assay (scratch method), cell migration. The class given is cell-based, human. As to conditions: for activity at 10 µM: percent relative migration at 10 μM after 24 h, relative to control, MDA-MB-231; for inhibition of migration in words: at a concentration of 0.2×IC50. On the procedure:
The experimental data of anti-migratory activities for compounds 3a-d and 4a-f were obtained using MDA-MB-231 breast cancer cells. For the migration assay, a wound-healing assay (scratch-wound assay) was utilized in the presence of vehicle (0.02% DMSO) or compounds at […].
Prior to assays, cells were grown until 80-90% confluence was observed. A 75 cm2 flask was used for 2.6×10^5 cells/mL in 10 mL and for a 25 cm2 flask 1.44×10^5 cells/mL in 5 mL. The cells were washed with PBS to remove all traces of FBS. 2 mL was added for a 25 cm2 flasks or 4 mL for a 75 cm2 flasks trypsin, and incubated 5-10 min at 37° C. At the end of the incubation time, cells were re-suspended and counted with hemocytometer using 1:2 dilutions with Trypan blue. Subsequently, cell viability was calculated. In a 12 multiwell plate, the plastic pattern was used to draw a fine space with a fine marker on the bottom of the plate. Cells were seeded at 1.5-2.2×10^5 cells/mL in 1 mL and incubated for 24 h. Cells were then rinsed with PBS and incubated in starving media (0.5% FBS) overnight. All controls and drugs were tested in triplicate. The negative control for each drug was prepared according to the drug's DMSO concentration.
Drugs were diluted and the final concentration at each well […]. The wound was made using a sterile pipette tip of […]. Cells were then rinsed very gently with media without FBS and media with negative controls was added. After a 24 h incubation, the gap distance was evaluated using the software Lumera Infinity Analyze 6.4.0. Pictures were taken at 0, 8, 12 and 24 h using a 10× objective. The percentage of migration was calculated using the following formula: 100−[(X0/X0)]*100 for time 0 h measurements 100−[(X24/X0)]*100 for time 24 h measurements
The experimental data of anti-migratory activities for compounds 3a-d and 4a-f were obtained using MDA-MB-231 breast cancer cells, and results are summarized in Table 1. For the migration assay, we used a wound-healing assay (scratch-wound assay)^22 in the presence of vehicle (0.02% DMSO) or compounds at 10 μM (FIG. 6). […] However, compounds 3a, 3c, and 4a-f inhibited migration in the range of 1-9%.
(§4) An additional example of a compounds with modification in building block C was synthesized via a different procedure as represented in Scheme 2B (see FIG. 11B). The compounds that were synthesized were tested for their biological activity by determination of their cytotoxicity in MDA-MB-231 breast cancer cell lines as shown in Table 5. The cytotoxicity's are expressed as IC50, which indicates the concentration at which 50% of the cell growth is inhibited. Furthermore, the inhibition of cell migration was tested at a concentration of 0.2×IC50, or, when the IC50 was >50 μM at a concentration of 10 μM. For comparison, Table 5 also includes the Lipinski and drug-likeness parameters as calculated via the MolSoft platform.
Migration assays were performed via the Scratch Method as described previously.

The test system of test [3] is MDA-MB-231 breast cancer cell lines. The experiment in a line: Cytotoxicity (IC50) of EHop-016 derivatives modified in building block C. Particulars: Homo sapiens, concentration at which 50% of the cell growth is inhibited. The class given is cell-based. As to the method: as §4

Bounds are passed on as bounds.

The term GI50 denotes the concentration that inhibits growth by half. Read a low GI50 as greater sensitivity of the cells. `CCn1c2ccccc2c2cc(Nc3cc(C)nc(NCCCN4CCOCC4)n3)ccc21` [Compound 8, N^4-(9-Ethyl-9H-carbazol-3-yl)-6-methyl-N^2-(3-morpholin-4-yl-propyl)-pyrimidine-2,4-diamine]: the values for the GI50 (in test [1]; in the test on MCF-7 cancer cells) were 6 µM and 9.5 µM, respectively.
With `CCn1c2ccccc2c2cc(NC(=O)c3ccccc3C(=O)NCCO)ccc21` [Compound 14f, N^1-(9-ethyl-9H-carbazol-3-yl)-N^2-(2-hydroxyethyl)phthalamide], the concentration for 50% growth inhibition (GI50) in the test on MDA-MB-231 cancer cells and in the test on MCF-7 cancer cells was more than 50 µM throughout. Also, the activity at 10 µM in test [2] (Homo sapiens) worked out at 98 ± 1.83%.
For `CCn1c2ccccc2c2cc(NC(=O)C3CCCCC3C(=O)NCCN3CCOCC3)ccc21` (stereo not shown) [Compound 14g], the GI50 in the test on MDA-MB-231 cancer cells and in the test with MCF-7 cancer cells was more than 50 µM each time. Besides, in test [2] (Homo sapiens), the activity at 10 µM is 99 ± 1.63%.
With `CCn1c2ccccc2c2cc(NC(=O)C3CCCCC3C(=O)NCCCN3CCOCC3)ccc21` (stereo not shown) [Compound 14h, cyclohexane-1,2-dicarboxylic acid 1-[(9-ethyl-9H-carbazol-3-yl)-amide]-2-[(3-morpholin-4-yl-propyl)-amide]], the concentration for 50% growth inhibition (GI50) in the test on MDA-MB-231 cancer cells and with MCF-7 cancer cells was more than 50 µM in each case. Also, the activity at 10 µM in test [2] (Homo sapiens) was found to be 100 ± 0.56%.
The IC50 is the concentration at which inhibition is half-maximal. A lower IC50 goes with greater potency. With `CCN(CC)CCCC(C)Nc1nccc(Nc2ccc3c(c2)c2ccccc2n3CC)n1` (stereo not shown) [Compound 32, N^2-(5-(diethylamino)pentan-2-yl)-N^4-(9-ethyl-9H-carbazol-3-yl)pyrimidine-2,4-diamine], in test [2] (Homo sapiens, MDA-MB-231, 24 h, at 1.8 μM (0.2×IC50)), the activity at 1.8 µM turned out to be 99.9%. This compound also came in with a concentration for half-maximal inhibition (IC50) in test [3] of 9 µM.
With `CCn1c2ccccc2c2cc(Nc3ccnc(NCCCn4ccnc4)n3)ccc21` [Compound 33, N^2-(3-(1H-imidazol-1-yl)propyl)-N^4-(9-ethyl-9H-carbazol-3-yl)pyrimidine-2,4-diamine], in test [2] (Homo sapiens, MDA-MB-231, 24 h, at 1.51 μM (0.2×IC50)), the activity at 1.51 µM was found to be 100%. The midpoint of inhibition in test [3], the IC50, lay at 7.57 µM.
On to `CCn1c2ccccc2c2cc(Nc3ccnc(NCC4CCCCN4)n3)ccc21` (stereo not shown) [Compound 34, N^4-(9-ethyl-9H-carbazol-3-yl)-N^2-(piperidin-2-ylmethyl)pyrimidine-2,4-diamine], for which the activity at 0.39 µM in test [2] (Homo sapiens, MDA-MB-231, 24 h, at 0.39 μM (0.2×IC50)) turned out to be 100%. The same compound had an IC50 in test [3] of 1.97 µM.
On to `CCn1c2ccccc2c2cc(Nc3ccnc(NCCC4CCCN4C)n3)ccc21` (stereo not shown) [Compound 35, N^4-(9-ethyl-9H-carbazol-3-yl)-N^2-(2-(1-methylpyrrolidin-2-yl)ethyl)pyrimidine-2,4-diamine], for which the activity at 3.8 µM in test [2] (Homo sapiens, MDA-MB-231, 24 h, at 3.8 μM (0.2×IC50)) was determined as 89.1%. Further, the “inhibition of migration in words” value in test [2] was “inhibition of migration”. The compound further came in with an IC50 in test [3] of 19.1 µM.
Regarding `CCn1c2ccccc2c2cc(Nc3ccnc(NCCO)n3)ccc21` [Compound 36, 2-((4-((9-ethyl-9H-carbazol-3-yl)amino)pyrimidin-2-yl)amino) ethanol], the activity at 2.92 µM in test [2] (Homo sapiens, MDA-MB-231, 24 h, at 2.92 μM (0.2×IC50)) is 94.8%. The compound also registered a half-maximal inhibitory concentration (IC50) in test [3] of 14.6 µM.
Turning to `CCn1c2ccccc2c2cc(Nc3ccnc(NCCOCCO)n3)ccc21` [Compound 37, 2-(2-((4-((9-ethyl-9H-carbazol-3-yl)amino)pyrimidin-2-yl)amino)ethoxy)ethanol], the activity at 3.07 µM in test [2] (Homo sapiens, MDA-MB-231, 24 h, at 3.07 μM) came out at 100%. The compound also gave an IC50 in test [3] of more than 50 µM.
In the case of `CCn1c2ccccc2c2cc(Nc3ccnc(NCCOC)n3)ccc21` [Compound 38, N^4-(9-ethyl-9H-carbazol-3-yl)-N^2-(2-methoxyethyl)pyrimidine-2,4-diamine], the activity at 2.8 µM in test [2] (Homo sapiens, MDA-MB-231, 24 h, at 2.8 μM) came out at 96.7%. This compound also gave a half-maximal inhibitory concentration (IC50) in test [3] of more than 50 µM.
Regarding `CCn1c2ccccc2c2cc(Nc3ccnc(NCc4ccc(OC)cc4OC)n3)ccc21` [Compound 39, N^2-(2,4-dimethoxybenzyl)-N^4-(9-ethyl-9H-carbazol-3-yl) pyrimidine-2,4-diamine], in test [2] (Homo sapiens, MDA-MB-231, 24 h, at 0.92 μM), the activity at 0.92 µM worked out at 103%. Further, the IC50 in test [3] was more than 50 µM.
Take `CCn1c2ccccc2c2cc(Nc3ccnc(Nc4c(OC)cc(OC)cc4OC)n3)ccc21` [Compound 40, N^4-(9-ethyl-9H-carbazol-3-yl)-N^2-(2,4,6-trimethoxyphenyl) pyrimidine-2,4-diamine]: in test [2] (Homo sapiens, MDA-MB-231, 24 h, at 1.54 μM (0.2×IC50)), the activity at 1.54 µM was found to be 80.2%. Further, the “inhibition of migration in words” value in test [2] is on record as “inhibition of migration”. Further, the midpoint of inhibition in test [3], the IC50, lay at 7.7 µM.
Turning to `CCn1c2ccccc2c2cc(Nc3ccnc(NC(=O)Nc4cc(Cl)c(OC)cc4OC)n3)ccc21` [Compound 41, 1-(5-chloro-2,4-dimethoxyphenyl)-3-(4-((9-ethyl-9H-carbazol-3-yl)amino)pyrimidin-2-yl)urea], in test [2] (Homo sapiens, MDA-MB-231, 24 h, at 1 μM), the activity at 1 µM turned out to be 77.3%. In addition, the “inhibition of migration in words” value in test [2] was “inhibition of migration”. In test [3], half-maximal inhibition (IC50) required 10.9 µM.

Source of the values: US11446299B2, “Carbazole EHop-016 derivatives as anticancer and anti-migratory agents” (UNIVERSITY OF PUERTO RICO, priority 2017, dated 2022).
